The source of these data is US7884077B2, “Methods for the treatment of mood disorders” (The McLean Hospital Corporation, priority 2006, dated 2011).

Data set [1] relates to human subjects who have been diagnosed with bipolar disorder and are acutely manic. Briefly: Open-label cumulative-dosing clinical trial of pentazocine in acutely manic subjects. It is filed as in vivo. The following applies: for YMRS mean: morning. As for the experimental part:
A trial study was conducted to determine the effect of pentazocine on the mood of human subjects who have been diagnosed with bipolar disorder and are acutely manic. Ten subjects (7 male and 3 female) between the ages of 18 and 65 were enrolled in the study. All subjects were admitted to the hospital with a primary diagnosis of bipolar mania by DSMIV criteria. […] Subjects with a current history of substance abuse or a recent history of opiate dependence were excluded. All subjects were deemed competent to give informed consent by non-study physicians. After complete description of the study to the subjects, written informed consent was obtained.
The current study was undertaken in full compliance with federal requirements and with institutional review board approval. The study was designed as an open-label cumulative-dosing trial.
The three-day study consisted of pre-treatment, treatment, and post-treatment days with subjects rated in the morning on all three days and multiple times on the day of treatment. On the treatment day, an initial 50 mg of pentazocine was given by mouth. A second dose was given two hours following the initial dose. Pentazocine was given as Talwin Nx (Sanofi-Synthlabo), consisting of 50 mg dose pentazocine with 0.5 mg naloxone (naloxone is added to limit the intra-venous abuse potential of this drug but is not absorbed when given by oral administration as used here).
Assessment of manic symptoms by YMRS were made daily at the same time in the morning on all three days of the study. As the YMRS was designed to reflect the past 48 hours, it is not sensitive to acute symptomatic change (IsHak et al, 2002) YMRS and DSMIV criteria were used as the basis for constructing a scale to detect acute changes in manic symptoms (The Mania Acute Change Scale or MACS). […] The MACS scale is available online at www.mcleanhospital.org. The MACS, which includes items from the YMRS and a brief assessment of dysphoria/depression was given along with the YMRS in the morning on all three days of the study. In addition, the MACS was given hourly for 6 hours starting with the first dose of pentazocine. All investigator ratings were performed by investigator Beth Murphy, M. D., Ph.D. A self-rating scale designed to assess manic symptoms and medication side effects was completed by subjects whenever the MACS was given. Staff reports were reviewed, with special note of the duration of sleep and whether any ‘pro re nata’ (PRN) medications were required. Data were analyzed using a repeated measures ANOVA (SPSS 14.0).

The target of another data set is KOR (Homo sapiens, UniProt P41145). To be noted: Zhu et al., 1997; cited from earlier work.
Another data set deals with mu opiate receptors (Homo sapiens, UniProt P35372). The following applies: Bidlack et al., 2000; cited from earlier work.
For another data set, the system named is sigma receptors. To be noted: Bidlack et al., 2000; cited from earlier work.
Where [2] appears, read: 50 mg by mouth at Hour 0 and Hour 2, hourly ratings.
Setting [3] is: one hour after first 50 mg oral dose.
[4] abbreviates: second 50 mg oral dose given at hour 2.

The structures appear in SMILES notation. Entries after “also recorded” stand apart in the source; their conditions may differ.

Chain of KOR (P41145 whole entry): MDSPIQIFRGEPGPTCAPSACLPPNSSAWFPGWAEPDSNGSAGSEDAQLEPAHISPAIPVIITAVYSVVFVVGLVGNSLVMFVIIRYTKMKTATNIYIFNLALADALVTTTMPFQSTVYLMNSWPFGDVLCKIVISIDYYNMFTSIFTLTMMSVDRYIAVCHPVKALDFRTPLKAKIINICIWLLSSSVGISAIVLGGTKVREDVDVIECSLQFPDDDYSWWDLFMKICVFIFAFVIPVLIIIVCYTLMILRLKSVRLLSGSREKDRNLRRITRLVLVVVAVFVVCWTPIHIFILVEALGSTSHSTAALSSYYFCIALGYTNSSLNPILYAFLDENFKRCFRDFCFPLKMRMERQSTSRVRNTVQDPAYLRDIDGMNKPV
Chain of mu opiate receptors (P35372 whole entry): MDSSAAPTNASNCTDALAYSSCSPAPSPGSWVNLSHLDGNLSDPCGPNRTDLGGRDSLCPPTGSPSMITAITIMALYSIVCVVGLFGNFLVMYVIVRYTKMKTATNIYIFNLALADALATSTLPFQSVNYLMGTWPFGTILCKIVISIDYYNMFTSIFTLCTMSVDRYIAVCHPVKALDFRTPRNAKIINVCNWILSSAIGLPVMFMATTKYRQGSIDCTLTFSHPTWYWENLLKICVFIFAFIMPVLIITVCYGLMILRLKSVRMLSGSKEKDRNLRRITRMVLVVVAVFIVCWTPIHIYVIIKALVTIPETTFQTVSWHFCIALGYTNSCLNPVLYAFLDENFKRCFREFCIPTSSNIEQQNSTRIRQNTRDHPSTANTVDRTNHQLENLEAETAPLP

With `CC(C)=CCN1CCC2(C)c3cc(O)ccc3CC1C2C` (centres unmarked) [pentazocine], the dysphoria entry in data set [1] (50 mg by mouth at Hour 0 and Hour 2) is reported as “No dysphoria was reported; also recorded: None of the subjects complained of dysphoria”. In data set [1] (setting [2]), the “effect on manic symptoms (total MACS score)” value is “manic symptoms decreased; also recorded: All subjects experienced an improvement in manic symptoms; also recorded: transient but substantial and statistically significant reduction in manic symptoms”; the “effect on psychotic symptoms (clinician rating)” value is “no significant changes in psychosis; also recorded: No subject experienced exacerbation of psychotic symptoms; also recorded: most subjects experienced a mild improvement in psychotic symptoms”; the “sedation (clinician rating, scale of 0-4)” value is on record as “mild (half-point), nonsignificant, increases in sedation; also recorded: Sedation was low”. Further, in data set [1] (Hour 0 (baseline), before first dose), the “mean total MACS score” value is recorded as 20.1. Also, in data set [1] (hour 2, when second dose was given), the “mean total MACS score” value is listed as 18.6. In addition, the “mean total MACS score” value in data set [1] (hour 3, one hour after second 50 mg oral dose) is reported as 11.0. Also, in data set [1] (setting [3]), the “mean change in total manic symptom ratings (MACS) from baseline” value is listed as −8.8 and the “mean total MACS score” value was 11.3. Besides, the “mean change in total manic symptom ratings from baseline (decrease)” value in data set [1] (one hour after first 50 mg oral dose, MACS, 10 subjects) was 44%. For the same compound, in data set [1] (post-treatment day), the “rebound in symptoms after treatment” value is reported as “no evidence of a rebound in symptoms after treatment” and the YMRS mean was 12.7 ± 8.4. In data set [1] (pretreatment day), the YMRS mean came to 23.6 ± 8.9. Also, in data set [1] (setting [4]), the “fall in mean MACS score between hour 2 and hour 3” value amounted to 7.6 points; the “fall in mean total manic symptom ratings (MACS) between hour 2 and hour 3” value is reported as 41%. The same compound yielded a YMRS mean in data set [1] (treatment day) of 22.0 ± 6.9. Further, in data set [1] (two 50 mg oral doses two hours apart), the “tolerability / side effects” value is “well-tolerated; also recorded: No subject experienced significant side effects; also recorded: No adverse effects, including psychotomimetic effects, were observed or reported”. Further, at KOR, the “efficacy at KOR” value was “partial agonist”. Further, the “affinity and effects at mu opiate receptors relative to KOR” value at mu opiate receptors is “lower affinity and weaker effects”. For the same compound, in the data set with sigma receptors, the “affinity and effects at sigma receptors relative to KOR” value was “lower affinity and weaker effects”.
